According to patent publication US20200255492A1, “LEPTIN PEPTIDES AND THEIR USE FOR TREATING NEUROLOGICAL DISORDERS” (UNIVERSITY OF DUNDEE, priority 2017, published 2020):

Tests used:
[1] = test system: tau in hippocampal neurons; experiment: Immunocytochemistry of endogenous tau and tau/PSD-95 co-localization; assay type: cell-based, Sprague-Dawley rats; conditions: Aβ1-42 1 μM plus leptin/fragment 10 nM or SB216763 100 nM
Method: Hippocampal cultures were prepared as previously (Moult et al, 2010). Neonatal Sprague-Dawley rats (1-3 d old) were […] killed by cervical dislocation in accordance with the UK Animals (Scientific Procedures Act) 1986 legislation. Hippocampi were removed, and after washing in HEPES-buffered saline comprising (mM) 135 NaCl; 5 KCl; 1 CaCl2; 1 MgCl2; 10 HEPES; and 25 D-glucose at […], were treated with papain (1.5 mg ml21; Sigma-Aldrich) for 20 min at 37° C. Dissociated cells were plated onto sterile dishes (35 mm diameter; Greiner Bio-One, Kremsmun-ster, Austria) treated with poly-D-lysine (20 μg ml^−1; 1-2 h). Cultures were maintained in serum replacement medium (SR2; Sigma-Aldrich) in a humidified atmosphere of 5% CO2 and […] at 37° C. for up to 2 wk.
Immunocytochemistry was conducted on primary hippocampal cultures (7-14 DIV). Prior to labelling with antibodies, neurons were washed with HBS containing glycine (0.01 mM) and incubated with agents for 1 h at room temperature. Cultures were fixed with 4% paraformaldehyde for 5 min, then permeabilized with 0.1% Triton X-100 for 5 min. To label endogenous tau, neurons were incubated with a rabbit anti-tau (Ab-217; Genscript) primary antibody (1:200 dilution) at room temperature for 30 min, followed by incubation with an Alexa Fluor555 donkey anti-rabbit (1:250, Invitrogen) secondary antibody for an additional 30 min duration. To assess the % co-localisation of tau at synapses, neurons were dual labelled with an antibody against the synaptic marker, PSD-95 (mouse anti-PSD-95; 1:500, Thermo Fisher) followed by application of an Alexa Fluor488 goat anti-mouse secondary antibody (1:500, Invitrogen).
A Zeiss LSM510 confocal microscope was used for image acquisition and analysis. Images were obtained using a 10-s scan speed in single tracking mode or multi-tracking mode for dual labelling experiments. The intensity of immunostaining was measured off-line using Lasersharp software (Zeiss Lasersharp), whereby analysis lines of 50 μm length were drawn along randomly selected dendritic regions. All data were obtained from at least three different cultures from different animals. Imaging conditions including illumination intensity and photomultiplier gains were kept constant between treatments for each experiment. In addition, data were normalised relative to the mean fluorescence intensity obtained from control neurons. For synaptic co-localisation experiments, tau and PSD-95 positive immunostaining were compared. The number of tau-positive sites that co-localized with PSD-95 positive sites were counted and expressed as a percentage of total positive sites (peaks of intensity).

acute hippocampal slices = experiment: HFS-induced LTP with leptin hexamers; assay type: cell-based, Sprague Dawley rats; conditions: 10 nM for 50 min prior to HFS; control LTP 117±10.8% / 125±4.9%
Method: Parasagittal hippocampal slices (300 μm) were prepared from either P13-21 or 12-24-week-old male Sprague Dawley rats as previously (Moult et al. 2010). Brains were rapidly removed and placed in ice-cold artificial CSF (aCSF; bubbled with 95% O2 and 5% CO2) containing the following (in mm): 124 NaCl, 3 KCl, 26 NaHCO3, 1.25 NaH2PO4, 2 CaCl2, 1 MgSO4, and 10 d-glucose. Once prepared, parasagittal slices were allowed to recover at room temperature in oxygenated aCSF for 1 h before use. Slices were transferred to a submerged chamber maintained at room temperature and perfused with artificial cerebrospinal fluid at 2 ml min^−1. Standard extracellular recordings were used to monitor evoked field excitatory postsynaptic potentials (fEPSP) from stratum radiatum. The Schaffer collateral-commissural pathway was stimulated (constant voltage; 0.1 ms) at 0.033 Hz, using a stimulus intensity that evoked a peak amplitude ˜50% of the maximum. Synaptic potentials were low pass filtered at 2 kHz and digitally sampled at 10 kHz. The fEPSP slope was measured and expressed relative to baseline. Synaptic records are the average of 4 consecutive responses and stimulus artefacts are blanked for clarity. Recordings were made using an Axopatch 200B amplifier and analyzed using LTP v2.4 software. In synaptic plasticity studies, the degree of potentiation was calculated 30-35 min after HFS and expressed as a percentage of baseline±standard error of mean (SEM).
To determine if the leptin hexamers influence the magnitude of activity-dependent synaptic plasticity, standard extracellular recording techniques were used to assess the effects of leptin (116-121, 117-122, 118-123, 120-125, 124-129 and 125-130) on the magnitude of LTP induced by high frequency stimulation (100 Hz, 1 s) in acute hippocampal slices. […] In parallel studies, application of leptin (118-123; 158±3.8%; n=7; p<0.05; FIG. 8) or leptin (120-125; to 163±8.8% of baseline; n=5; p<0.05) also facilitated LTP, compared to control LTP (FIG. 8).

[2] = test system: differentiated SH-SY5Y human neuronal cells; experiment: MTT assay of mitochondrial activity (cell viability); assay type: cell-based; conditions: 10 nM; n=11
Method: (§1) The human neuroblastoma cell line, SH-SY5Y (ECACC, UK) was maintained in Dulbecco's Modified Eagle Medium supplemented with glucose ([…]) and 10% (v/v) cosmic calf serum (Fisher Scientific, UK) at 37° C. in a humidified atmosphere of 5% CO2, 95% air and allowed to reach 70-80% confluence before seeding. Cells (passage 10-18) were plated at 10 000 cells per well in 96 well tissue culture plates (Nunc, VWR, UK) and at a density of 2×10^5 cells in 35 mm dishes for protein extraction. To induce differentiation, cells were cultured in DMEM supplemented with glucose ([…]), 1% (v/v) cosmic calf serum and 10 μM retinoic acid for 5 days. Thereafter they were incubated in DMEM supplemented with glucose ([…]), serum replacement 2 (2%; Sigma, UK) and 18 μM 5-fluorodeoxyuridine to inhibit proliferation of undifferentiated cells. The 50% of the medium was changed every 2-3 days and pharmacological treatment was carried out 7 days after switching to this medium. Reagents used were (from Sigma UK unless stated) 0.1-10 nM human leptin and leptin (116-130); 0.1-10 nM leptin (22-56; Bachem; Switzerland); 10 nM leptin (116-121) leptin (117-122), leptin (124-129) or leptin (125-130; all Severn Biotech, UK); 5 μM copper chloride; […], 5 μM WP1066 or 50 nM wortmannin. All treatments were added to the culture at the same time and survival assays were carried out after 96 h treatment. Protein samples for signaling ELISA were extracted 3 h after exposure to the relevant reagents and for biomarker expression after 72 hours.
(§2) The concentration of lactate dehydrogenase (LDH) in the culture medium or the mitochondrial activity within cells was used to monitor the level of cell death, as previously (Oldreive and Doherty 2010). In certain experiments, a Crystal violet assay was used to assess total cell number. Cells were fixed in neutral buffered formalin and washed 3 times in PBS prior to staining with 0.01% crystal violet acetate for 5 min. Plates were washed 5-10 times in dH2O and cells solubilised in 100 μl dimethyl sulfoxide (DMSO) before reading the absorbance on a Biohit BP100 plate reader. For all assays, data is expressed as percentage relative to control, untreated wells to normalize for differences in plating density between individual experiments.
To confirm the findings of the LDH assay, cells were treated with Aβ1-42 alone or with a 10 nM of leptin, leptin (116-130) or the listed hexamers, and mitochondrial activity, as a measure of cell viability, determined by MTT assay. A significant increase in mitochondrial activity was detected following treatment with either leptin or leptin (116-130; both 10 nM). […] Thus for Aβ1-42-treated cells, 10 nM leptin and 10 nM leptin (116-130) increased mitochondrial activity by 32.6±5.2% and 40.9+5.8% respectively compared with Aβ1-42 alone (n=11; P<0.001; FIG. 11B); an effect that was mirrored by 10 nM leptin (116-121) and leptin (117-122); 43.61±3.9% and 40.5±3.7*% (n=11; P<0.001; FIG. 11B), but not by 10 nM leptin (124-129) or leptin (125-130) (n=11; P>0.5; FIG. 11B). This reinforces the findings from the LDH assay that similar to either leptin or leptin (116-130), treatment with leptin (116-121) or leptin (117-122) reduces neuronal death in response to AD-linked toxins in vitro.

[3] = test system: differentiated human neural cells (SH-SY5Y); experiment: LDH release assay (membrane leakage, cell death); assay type: cell-based; conditions: 10 μM Aβ1-42; for reduction of LDH release compared with Aβ1-42 alone, hexamer study: 10 nM, n=11
Method: as §1, §2
To determine whether leptin (116-130) has neuroprotective actions, the effects of leptin (116-130) on the viability of differentiated human neural cells (SH-SY5Y) was examined after exposure to either 5 μM CuCl2 or 10 μM Aβ1-42. Cells were treated with the toxin alone or with a range of concentrations (10-0.1 nM) of leptin or leptin (116-130). […] Thus like leptin, treatment with leptin (116-130) reduces neuronal death in response to AD-linked toxins in vitro.

[4] = test system: GluA1 surface expression in cultured hippocampal neurons; experiment: Surface labelling of AMPA receptor subunit GluA1 (immunocytochemistry); assay type: cell-based, Sprague Dawley rats; conditions: for GluA1 surface expression, hexamer study: 10 nM, 15 min
[5] = test system: phosphorylated tau (p-tau); experiment: ELISA of phosphorylated tau relative to α-tubulin; assay type: cell-based, human; conditions: 10 nM; n=5
Method: as §1
Protein from cultures was extracted into 500 μl Tris-buffered saline containing protease inhibitor cocktail, and a Bradford assay used to determine protein concentration. Samples were diluted to give equal loading onto ELISA plates. Commercially available ELISA kits were used in accordance with the manufacturer's instructions to determine the ratio of pan-STAT3 to phospho-STAT3 (Sigma, UK) and pan-Akt to phospho-Akt (Sigma, UK) and the levels of alpha-tubulin and phosphorylated tau (Sigma, UK). Each protein sample was run in duplicate using samples derived from at least 5 biological repeats.
Hyper-phosphorylation of tau is the underpinning mechanism of the development of neurofibrillary tangles—one of the key pathological feature of AD. Human SH-SY5Y neuronal cells were exposed to Aβ1-42 alone or in combination with 10 nM leptin, leptin (116-130), leptin (116-121), leptin (117-122), leptin (124-129) or leptin (125-130). Protein was extracted for ELISA assay and the ratio of p-tau to the house-keeping protein α-tubulin determined (FIG. 11C). […] Thus for Aβ1-42-treated cells, 10 nM leptin and 10 nM leptin (116-130) reduced p-tau expression by 56.2±8.0% and 58.9+4.6% respectively compared with Aβ1-42 alone (n=5; P<0.001; FIG. 11C); an effect that was mirrored by 10 nM leptin (116-121) and leptin (117-122); 58.1±4.0% and 45.48±6.1% (n=5; P<0.001 and P<0.01 respectively; FIG. 11C), but not by 10 nM leptin (124-129) or leptin (125-130)(n=5; P>0.5; FIG. 11C).

| Molecule | magnitude of LTP after HFS (100 Hz, 1 s) (acute hippocampal slices) | GluA1 surface expression, hexamer study [4] | also measured |
| --- | --- | --- | --- |
| Cn1cc(C2=C(c3ccc(Cl)cc3Cl)C(=O)NC2=O)c2ccccc21 [SB216763, reference compound] |  |  | % co-localization of tau and PSD-95 in Aβ1-42-treated neurons [1]: decreased % tau/PSD-95 co-localization; relative tau intensity in Aβ1-42-treated neurons [1]: mirrors the effects of leptin |
| GLQKPE (listed as Mus musculus) [leptin (124-129)] | 137±5.6 % of baseline | 89±6 % of control | increase in mitochondrial activity compared with Aβ1-42 alone [2]: did not; reduction of LDH release compared with Aβ1-42 alone, hexamer study [3]: did not; reduction of p-tau expression compared with Aβ1-42 alone [5]: did not |
| bisperoxovanadium [bpV, reference compound] |  |  | GluA1 surface expression, agent alone (PTEN study) ([4]; bpV 50 nM, 30 min): 148±8 % of control |
| leptin (122-128): leptin fragment amino acids 122-128 (ASGLETL; UniProt P41159 122-128, looked up, fragment) |  | failed to significantly alter the surface expression of GluA1 |  |
| leptin (121-126): leptin fragment amino acids 121-126 (WASGLE; UniProt P41159 121-126, looked up, fragment) |  | failed to significantly alter the surface expression of GluA1 |  |
| C[C@H](NC(=O)/C(C#N)=C/c1cccc(Br)n1)c1ccccc1 [WP1066, reference compound] |  |  | effect of inhibitor on leptin (116-130)-mediated neuroprotection (LDH) ([3]; WP1066 5 μM, wortmannin 50 nM): prevented leptin (116-130)-mediated neuroprotection |
| PQTSGL (listed as Mus musculus) [leptin (120-125)] | 163±8.8 % of baseline | increased the surface expression of GluA1 |  |
| LQKPES (SCHLPWASGL; listed as Homo sapiens) [leptin (125-130)] | 137±2.4 % of baseline | 98±5 % of control | increase in mitochondrial activity compared with Aβ1-42 alone [2]: did not; reduction of LDH release compared with Aβ1-42 alone, hexamer study [3]: did not; reduction of p-tau expression compared with Aβ1-42 alone [5]: did not |
| SLPQTS (listed as Mus musculus) [leptin (118-123)] | 158±3.8 % of baseline | increased the surface expression of GluA1 |  |
